Activity calls are given as the source filed them. No cut-off for these calls is given here.
Experiments:
Staphylococcus aureus [1] = assay: Antibacterial activity against Staphylococcus aureus at 100 to 200 ug/ml after 24 hrs by microwell dilution assay; type: functional, organism-based
Staphylococcus cohnii [2] = assay: Antibacterial activity against Staphylococcus cohnii at 100 to 200 ug/ml after 24 hrs by microwell dilution assay; type: functional, organism-based
CAKI-1 = assay: Cytotoxicity against human Caki1 assessed as cell growth at 10 uM after 48 hrs by SRB assay; type: functional; settings: CAKI-1, 48 h, read-out: Activity
T47D = assay: Cytotoxicity against human T47D assessed as cell growth at 10 uM after 48 hrs by SRB assay; type: functional; settings: read-out: Activity
PC-3 = assay: Cytotoxicity against human PC3 assessed as cell growth at 10 uM after 48 hrs by SRB assay; type: functional; settings: PC-3, 48 h, read-out: Activity
Hepacivirus hominis = assay: Inhibition of HCV N-terminal His-tagged NS5B RNA dependent RNA polymerase expressed in Escherichia coli DH5alpha using poly rA/U12 as primer at 200 uM after 60 mins by liquid scintillation counting
Micrococcus luteus [3] = assay: Antibacterial activity against Micrococcus luteus at 100 to 200 ug/ml after 24 hrs by microwell dilution assay; type: functional, organism-based
Micrococcus luteus [4] = assay: Antibacterial activity against Micrococcus luteus at 6.25 to 200 ug/ml after 24 hrs by microwell dilution method; type: functional, organism-based
MDA-MB-468 = assay: Cytotoxicity against human MDA-MB-468 assessed as cell growth at 10 uM after 48 hrs by SRB assay; type: functional; settings: MDA-MB-468, 48 h, read-out: Activity
Candida parapsilosis = assay: Antifungal activity against Candida parapsilosis at 10 mg/ml after 48 hrs by disc diffusion method; type: functional, organism-based
Candida tropicalis = assay: Antifungal activity against Candida tropicalis at 10 mg/ml after 48 hrs by disc diffusion method; type: functional, organism-based
Staphylococcus cohnii [5] = assay: Antibacterial activity against Staphylococcus cohnii at 10 mg/ml after 24 hrs by disc diffusion method; type: functional
Proteus vulgaris [6] = assay: Antibacterial activity against Proteus vulgaris at 6.25 to 200 ug/ml after 24 hrs by microwell dilution method; type: functional, organism-based
Micrococcus lylae [7] = assay: Antibacterial activity against Micrococcus lylae at 10 mg/ml after 24 hrs by disc diffusion method; type: functional, organism-based
Salmonella paratyphi [8] = assay: Antibacterial activity against Salmonella paratyphi at 6.25 to 200 ug/ml after 24 hrs by microwell dilution method; type: functional, organism-based; settings: Salmonella enterica subsp. enterica serovar Paratyphi A
Kluyveromyces marxianus = assay: Antifungal activity against Kluyveromyces marxianus at 10 mg/ml after 48 hrs by disc diffusion method; type: functional, organism-based
Micrococcus lylae [9] = assay: Antibacterial activity against Micrococcus lylae at 6.25 to 200 ug/ml after 24 hrs by microwell dilution method; type: functional, organism-based
[10] = tested on: Acinetobacter radioresistens; assay: Antibacterial activity against Acinetobacter radioresistens at 10 mg/ml after 24 hrs by disc diffusion method; type: functional, organism-based
Staphylococcus aureus [11] = assay: Antibacterial activity against Staphylococcus aureus at 6.25 to 200 ug/ml after 24 hrs by microwell dilution assay; type: functional, organism-based
[12] = tested on: Schwanniomyces occidentalis; assay: Antifungal activity against Schwanniomyces occidentalis at 10 mg/ml after 48 hrs by disc diffusion method; type: functional, organism-based
Klebsiella aerogenes [13] = assay: Antibacterial activity against Enterobacter aerogenes at 10 mg/ml after 24 hrs by disc diffusion method; type: functional, organism-based
Salmonella paratyphi [14] = assay: Antibacterial activity against Salmonella paratyphi at 10 mg/ml after 24 hrs by disc diffusion method; type: functional, organism-based; settings: Salmonella enterica subsp. enterica serovar Paratyphi A
Candida albicans = assay: Antifungal activity against Candida albicans at 10 mg/ml after 48 hrs by disc diffusion method; type: functional, organism-based
Staphylococcus aureus [15] = assay: Antibacterial activity against Staphylococcus aureus at 10 mg/ml after 24 hrs by disc diffusion method; type: functional
Pseudomonas aeruginosa [16] = assay: Antibacterial activity against Pseudomonas aeruginosa at 10 mg/ml after 24 hrs by disc diffusion method; type: functional, organism-based
Micrococcus luteus [17] = assay: Antibacterial activity against Micrococcus luteus at 10 mg/ml after 24 hrs by disc diffusion method; type: functional, organism-based
Pseudomonas aeruginosa [18] = assay: Antibacterial activity against Pseudomonas aeruginosa at 6.25 to 200 ug/ml after 24 hrs by microwell dilution method; type: functional, organism-based
Aspergillus = assay: Antifungal activity against Aspergillus at 10 mg/ml after 72 hrs by disc diffusion method; type: functional, organism-based
Escherichia coli [19] = assay: Antibacterial activity against Escherichia coli at 10 mg/ml after 24 hrs by disc diffusion method; type: functional, organism-based
Klebsiella aerogenes [20] = assay: Antibacterial activity against Enterobacter aerogenes at 6.25 to 200 ug/ml after 24 hrs by microwell dilution method; type: functional, organism-based
[21] = tested on: Acinetobacter radioresistens; assay: Antibacterial activity against Acinetobacter radioresistens at 6.25 to 200 ug/ml after 24 hrs by microwell dilution method; type: functional, organism-based
Photorhabdus luminescens [22] = assay: Antibacterial activity against Photorhabdus luminescens at 10 mg/ml after 24 hrs by disc diffusion method; type: functional, organism-based
Nakaseomyces glabratus = assay: Antifungal activity against Candida glabrata at 10 mg/ml after 48 hrs by disc diffusion method; type: functional, organism-based
Pichia membranifaciens = assay: Antifungal activity against Pichia membranifaciens at 10 mg/ml after 48 hrs by disc diffusion method; type: functional, organism-based
Staphylococcus cohnii [23] = assay: Antibacterial activity against Staphylococcus cohnii at 6.25 to 200 ug/ml after 24 hrs by microwell dilution assay; type: functional, organism-based
Proteus vulgaris [24] = assay: Antibacterial activity against Proteus vulgaris at 10 mg/ml after 24 hrs by disc diffusion method; type: functional, organism-based
Escherichia coli [25] = assay: Antibacterial activity against Escherichia coli at 6.25 to 200 ug/ml after 24 hrs by microwell dilution method; type: functional, organism-based
Photorhabdus luminescens [26] = assay: Antibacterial activity against Photorhabdus luminescens at 6.25 to 200 ug/ml after 24 hrs by microwell dilution method; type: functional, organism-based
SR = assay: Cytotoxicity against human SR assessed as cell growth at 10 uM after 48 hrs by SRB assay; type: functional; settings: read-out: Activity
Staphylococcus aureus [27] = assay: Antibacterial activity against Staphylococcus aureus at 200 ug/disc after 24 hrs by disc diffusion method; type: functional, organism-based
Staphylococcus cohnii [28] = assay: Antibacterial activity against Staphylococcus cohnii at 200 ug/disc after 24 hrs by disc diffusion method; type: functional, organism-based

| Structure (SMILES) | growth at 10 µM (T47D) [%] | inhibition (Hepacivirus hominis) [%] | Activity (Micrococcus luteus [4]) | Activity (Candida parapsilosis) | Activity (Candida tropicalis) | Activity (Staphylococcus cohnii [5]) | Activity (Proteus vulgaris [6]) | Activity (Micrococcus lylae [7]) | Activity (Salmonella paratyphi [8]) | Activity (Kluyveromyces marxianus) | Activity (Micrococcus lylae [9]) | Activity [10] | Activity (Staphylococcus aureus [11]) | Activity [12] | Activity (Klebsiella aerogenes [13]) | Activity (Salmonella paratyphi [14]) | Activity (Candida albicans) | Activity (Staphylococcus aureus [15]) | Activity (Pseudomonas aeruginosa [16]) | Activity (Micrococcus luteus [17]) | also measured |
| --- | --- | --- | --- | --- | --- | --- | --- | --- | --- | --- | --- | --- | --- | --- | --- | --- | --- | --- | --- | --- | --- |
| CC(C(=O)NN1C(=O)CSC1c1ccc(Cl)cc1)c1ccc(-c2ccccc2)c(F)c1 (stereo not given) | 50.9 | 8 |  |  |  |  |  |  |  |  |  |  |  |  |  |  |  |  |  |  | Activity (Staphylococcus aureus [1]): Active; Activity (Staphylococcus cohnii [2]): Active; growth at 10 µM (CAKI-1): 29.6%; growth at 10 µM (PC-3): 49.2%; Activity (Micrococcus luteus [3]): Active |
| CCN1C(=O)CS/C1=N\NC(=O)C(C)c1ccc(-c2ccccc2)c(F)c1 (stereo not given) | 55.2 | 8 | inactive | inactive | inactive | inactive | inactive | inactive | inactive | inactive | inactive | inactive | inactive | inactive | inactive | inactive | inactive | inactive | inactive | inactive | growth at 10 µM (MDA-MB-468): 43.6%; Activity (Pseudomonas aeruginosa [18]): inactive; Activity (Aspergillus): inactive; Activity (Escherichia coli [19]): inactive; Activity (Klebsiella aerogenes [20]): inactive; Activity [21]: inactive; Activity (Photorhabdus luminescens [22]): inactive; Activity (Nakaseomyces glabratus): inactive; Activity (Pichia membranifaciens): inactive; Activity (Staphylococcus cohnii [23]): inactive; Activity (Proteus vulgaris [24]): inactive; Activity (Escherichia coli [25]): inactive; Activity (Photorhabdus luminescens [26]): inactive |
| COc1ccc(/C=N/NC(=O)C(C)c2ccc(-c3ccccc3)c(F)c2)cc1 (stereo not given) | 57.4 | 8 | inactive | inactive | inactive | inactive | inactive | inactive | inactive | inactive | inactive | inactive | inactive | inactive | inactive | inactive | inactive | inactive | inactive | inactive | Activity (Pseudomonas aeruginosa [18]): inactive; Activity (Aspergillus): inactive; Activity (Escherichia coli [19]): inactive; Activity (Klebsiella aerogenes [20]): inactive; Activity [21]: inactive; Activity (Photorhabdus luminescens [22]): inactive; Activity (Nakaseomyces glabratus): inactive; Activity (Pichia membranifaciens): inactive; Activity (Staphylococcus cohnii [23]): inactive; growth at 10 µM (SR): 46%; Activity (Proteus vulgaris [24]): inactive; Activity (Escherichia coli [25]): inactive; Activity (Photorhabdus luminescens [26]): inactive |
| CC1(C)S[C@@H]2[C@H](NC(=O)[C@H](N)c3ccccc3)C(=O)N2[C@H]1C(=O)O |  |  |  |  |  |  |  |  |  |  |  |  |  |  |  |  |  |  |  |  | Activity (Staphylococcus aureus [27]): inactive; Activity (Staphylococcus cohnii [28]): inactive |
